Source: PubChem BioAssay (NCI)
“And” between values parts separate entries of the source, which are not always exact repeats. Identical values can stand only once.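 Values below derive from 48-hour exposures of cells grown in 96-well plates, with endpoints linearly interpolated between the two concentrations bracketing the appropriate inhibition level. The concentration for 50% growth inhibition is given as GI50. TGI is the concentration that stops growth completely.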 The source made the active and inactive calls. No stated cut-off is given here; in the data, active means GI50 below about 0.43 µM; inactive means the rest.

Legend:
Assay in all cases: NCI-60 cell line screen, 48 h
BT-549 breast = tested on: BT-549 breast
HS 578T breast = tested on: HS 578T breast
MDA-MB-435 = tested on: MDA-MB-435
MDA-N = tested on: MDA-N
KM20L2 colon = tested on: KM20L2 colon
M19-MEL melanoma = tested on: M19-MEL melanoma
SNB-78 CNS = tested on: SNB-78 CNS

Compound C#CCNC(=O)c1cccc2c1cc(C)n2-c1nc2c(c(NCc3ccccc3)n1)CCCC2 has a GI50 (BT-549 breast) of 0.0265 µM, a TGI (BT-549 breast) of 0.0643 µM and a GI50 (HS 578T breast) of 0.0321 µM. The TGI (HS 578T breast) was 0.954 µM, the GI50 (MDA-MB-435) was 0.0235 µM and the TGI (MDA-MB-435) was 0.0656 µM.
In the case of COc1ccc(C(=O)C#Cc2cnc(OC)nc2OC)cc1, the GI50 (BT-549 breast) is reported as 25400 µM, the TGI (HS 578T breast) is reported as 27.7 µM and the outcome (HS 578T breast) is reported as “inactive”. The GI50 (MDA-MB-435) was 28200 µM and the TGI (MDA-N) was 3.89 µM.
In the case of Cc1ccc(C(=O)N(CCCN)C(c2oc3cc(Cl)ccc3c(=O)c2Cc2ccccc2)C(C)C)cc1 (stereo not given), the GI50 (BT-549 breast) is reported as under 0.01 µM, the TGI (BT-549 breast) is reported as 2.03 µM and the GI50 (HS 578T breast) is reported as under 0.01 µM. For the same compound, the TGI (HS 578T breast) was 1.46 µM, the GI50 (MDA-MB-435) was under 0.01 µM and the TGI (MDA-MB-435) was under 0.01 µM.
Cn1c2ccccc2c2ccc3c(c21)C(=O)c1ccccc1C3=O gave a TGI (BT-549 breast) of 50.9 µM, a TGI (HS 578T breast) of 46.6 µM and a TGI (MDA-MB-435) of 32.2 µM.
In the case of O=C(O)C(CS)Nc1c2ccccc2nc2ccccc12 (stereo not given), the TGI (KM20L2 colon) is reported as over 100 µM and the TGI (M19-MEL melanoma) is reported as over 100 µM.
For Nc1nc(N(Cc2ccccc2)c2ccccc2)c2cn[nH]c2n1, the GI50 (BT-549 breast) was 3.95 µM, the TGI (BT-549 breast) was over 100 µM and the GI50 (HS 578T breast) was 2.7 µM. For the same compound, the TGI (HS 578T breast) was 7.91 µM, the GI50 (MDA-MB-435) was 2.63 µM and the TGI (MDA-MB-435) was over 100 µM.
In the case of Nc1nc2c(nnn2C2CC(O)C(CO)O2)c(=O)[nH]1 (stereo not given), the GI50 (BT-549 breast) is reported as 4.14 µM, the TGI (BT-549 breast) is reported as over 59.9 µM and the GI50 (HS 578T breast) is reported as over 33.9 µM. It also gave a TGI (HS 578T breast) of over 95.7 µM, a GI50 (MDA-MB-435) of 4.35 µM and a TGI (MDA-MB-435) of over 100 µM.
NC12CC3CC(C1)CC(C(=O)O)(C3)C2 showed a TGI (KM20L2 colon) of over 100 µM, a TGI (M19-MEL melanoma) of over 100 µM and a TGI (SNB-78 CNS) of over 100 µM.
For COC(=O)Nc1nc2ccc(Oc3ccc(NC(=O)Nc4cc(C(F)(F)F)ccc4F)cc3)cc2s1, the GI50 (BT-549 breast) was over 25 µM, the TGI (BT-549 breast) was over 25 µM and the GI50 (HS 578T breast) was 6.21 µM. It also gave a TGI (HS 578T breast) of over 25 µM, a GI50 (MDA-MB-435) of 7.37 µM and a TGI (MDA-MB-435) of over 25 µM.
CC1(C)OC2=C(CC1Br)C(=O)C(=O)c1ccccc12 (stereo not given) was tested, and the GI50 (BT-549 breast) was 1.85 µM, the TGI (BT-549 breast) was 3.34 µM and the GI50 (HS 578T breast) was 2.65 µM. It also gave a TGI (HS 578T breast) of 7.69 µM, a GI50 (MDA-MB-435) of 1.69 µM and a TGI (MDA-MB-435) of 3.35 µM.
Compound COc1cc(Nc2nc3ccccc3nc2-c2cccs2)cc(OC)c1OC has a TGI (KM20L2 colon) of over 100 µM, a TGI (M19-MEL melanoma) of over 100 µM and a TGI (SNB-78 CNS) of over 100 µM.
CS(=O)(=O)CCNCc1ccc(-c2ccc3ncnc(Nc4ccc(OCc5ccccc5)cc4)c3c2)o1 gave a GI50 (BT-549 breast) of 5.85 µM, a TGI (BT-549 breast) of 17.5 µM and a GI50 (HS 578T breast) of 6.43 µM. It also gave a TGI (HS 578T breast) of over 20.5 µM, a GI50 (MDA-MB-435) of 4.94 µM and a TGI (MDA-MB-435) of 11.4 µM.
In the case of O=C1C(Cl)=C(NCCN2CCOCC2)C(=O)c2ncccc21, the TGI (BT-549 breast) is reported as 3.21 µM and 3.03 µM, the GI50 (HS 578T breast) is reported as 3.39 µM and the TGI (HS 578T breast) is reported as 4.97 µM and 19 µM. For the same compound, the GI50 (MDA-MB-435) was 0.267 µM, the TGI (MDA-MB-435) was 0.372 µM and 0.686 µM and the TGI (MDA-N) was 0.389 µM.
In the case of O=c1cc(-c2ccccc2)oc2cc(OC/C(=N/O)c3ccccc3)ccc12, the GI50 (BT-549 breast) is reported as 12.4 µM, the TGI (BT-549 breast) is reported as 27.8 µM and the GI50 (MDA-MB-435) is reported as over 50 µM. It also gave a TGI (MDA-MB-435) of over 50 µM.
CCc1ccccc1NC(=O)C1=C(C)NC(C)=C(C(=O)Nc2ccccc2CC)C1c1ccc2c(c1)OCO2 gave a TGI (M19-MEL melanoma) of over 100 µM and a TGI (SNB-78 CNS) of over 100 µM.
Compound O=C1c2ccccc2C(=O)N1CCc1ncc[nH]1 has a TGI (HS 578T breast) of over 100 µM, a TGI (MDA-MB-435) of over 100 µM and a TGI (MDA-N) of over 100 µM.
Cc1ccc(-c2nc3nc(-c4ccccc4)nc(N4CCCNCC4)c3o2)cc1 was tested, and the GI50 (BT-549 breast) was 1.63 µM, the TGI (BT-549 breast) was 3.19 µM and the GI50 (HS 578T breast) was 1.83 µM. The TGI (HS 578T breast) was 4.02 µM, the GI50 (MDA-MB-435) was 1.93 µM and the TGI (MDA-MB-435) was 3.42 µM.
In the case of C[N+]1=C(/C=C/c2ccc(O)c3ncccc23)C(C)(C)c2ccccc21, the GI50 (BT-549 breast) is reported as 2.64 µM, the TGI (BT-549 breast) is reported as 10.3 µM and the GI50 (HS 578T breast) is reported as 2.14 µM. It also gave a TGI (HS 578T breast) of 8.14 µM, a GI50 (MDA-MB-435) of 2.35 µM and a TGI (MDA-MB-435) of 7.01 µM.
CCOC(=O)/C(=C\c1ccccc1)C(=O)O showed a TGI (KM20L2 colon) of over 100 µM, a TGI (M19-MEL melanoma) of over 100 µM and a TGI (SNB-78 CNS) of over 100 µM.
CC(SC(=S)N1CCOCC1)c1cc2oc(=O)n(C)c2cc1Cl (stereo not given) showed a TGI (KM20L2 colon) of over 100 µM, a TGI (M19-MEL melanoma) of over 100 µM and a TGI (SNB-78 CNS) of over 100 µM.
Compound O=C(CCc1cc(-c2ccccc2)nc(=S)[nH]1)N(Cc1ccccc1)Cc1ccccc1 has a TGI (KM20L2 colon) of over 100 µM, a TGI (M19-MEL melanoma) of over 100 µM and a TGI (SNB-78 CNS) of over 100 µM.
For C/C(O)=C(\N=O)C(=O)Nc1ccc(Cl)cc1Cl, the TGI (KM20L2 colon) was over 100 µM, the TGI (M19-MEL melanoma) was over 100 µM and the TGI (SNB-78 CNS) was over 100 µM.
For CCOCC(=O)N[C@H]1CCc2cc(OC)c(OC)c(OC)c2-c2ccc(OC)c(=O)cc21, the TGI (HS 578T breast) was over 100 µM, the TGI (KM20L2 colon) was 0.0375 µM and the TGI (M19-MEL melanoma) was over 100 µM. The TGI (MDA-MB-435) was under 0.0196 µM, the TGI (MDA-N) was under 0.0196 µM and the TGI (SNB-78 CNS) was over 100 µM.
Compound CCN(CC)CCCC(C)Nc1c2ccc(Cl)cc2nc2ccc(O)cc12 (stereo not given) has a GI50 (BT-549 breast) of 5.38 µM, a TGI (BT-549 breast) of 18.3 µM and a GI50 (HS 578T breast) of 1.68 µM. The TGI (HS 578T breast) was 5.55 µM, the GI50 (MDA-MB-435) was 1.77 µM and the TGI (MDA-MB-435) was 3.32 µM.
For O=C1Nc2ccccc2C1(c1ccc(O)cc1)c1ccc(O)cc1, the GI50 (BT-549 breast) was 0.0625 µM, the TGI (BT-549 breast) was 0.541 µM and the GI50 (HS 578T breast) was 0.0932 µM. For the same compound, the TGI (HS 578T breast) was 0.298 µM, the GI50 (MDA-MB-435) was 23 µM and the TGI (MDA-MB-435) was 71.3 µM.
With Nc1c(-c2ccc(Cl)cc2)[n+]([O-])c2ccccc2[n+]1[O-] the TGI (KM20L2 colon) was over 100 µM, the TGI (M19-MEL melanoma) was over 100 µM and the TGI (SNB-78 CNS) was over 100 µM.
Nc1nccc(-c2c(-c3ccc(F)cc3)ncn2C2CCC(O)CC2)n1 (stereo not given) showed a GI50 (BT-549 breast) of 11.7 µM, a TGI (BT-549 breast) of over 25 µM and a GI50 (HS 578T breast) of 8.21 µM. The TGI (HS 578T breast) was over 25 µM, the GI50 (MDA-MB-435) was 6.75 µM and the TGI (MDA-MB-435) was over 25 µM.
COc1cc2ncn(-c3cc(OCc4cccs4)c(C(N)=O)s3)c2cc1OC showed a GI50 (BT-549 breast) of 4.67 µM, a TGI (BT-549 breast) of over 25 µM and a GI50 (HS 578T breast) of 5.94 µM. For the same compound, the TGI (HS 578T breast) was over 25 µM, the GI50 (MDA-MB-435) was 0.502 µM and the TGI (MDA-MB-435) was 1.71 µM.
COc1cc2cc(Oc3ccc(NC(=O)Nc4ccc(Cl)c(C(F)(F)F)c4)cc3)c(C)nc2cc1OCCN1CCOCC1 was tested, and the GI50 (BT-549 breast) was 2.63 µM, the TGI (BT-549 breast) was 9.33 µM and the GI50 (HS 578T breast) was 1.83 µM. The TGI (HS 578T breast) was 5.11 µM, the GI50 (MDA-MB-435) was 1.94 µM and the TGI (MDA-MB-435) was 4.1 µM.
Compound O/N=C/c1ncccc1C1OCCO1 has a TGI (KM20L2 colon) of over 100 µM, a TGI (M19-MEL melanoma) of over 100 µM and a TGI (SNB-78 CNS) of over 100 µM.
O=C(O)/C=C(\c1nc2ccc([N+](=O)[O-])cc2[nH]1)c1cc(Cl)ccc1O was tested, and the GI50 (BT-549 breast) was 2.3 µM, the TGI (BT-549 breast) was 7.25 µM and the GI50 (HS 578T breast) was 4.97 µM. For the same compound, the TGI (HS 578T breast) was over 100 µM, the GI50 (MDA-MB-435) was 2.84 µM and the TGI (MDA-MB-435) was 34.5 µM.
O=C(CC1C(=O)NN(c2ccc(Br)cc2)C1=O)c1cc(O)ccc1O (stereo not given) gave a GI50 (BT-549 breast) of 13.9 µM, a TGI (BT-549 breast) of over 50 µM and a GI50 (HS 578T breast) of 26.2 µM. The TGI (HS 578T breast) was over 50 µM, the GI50 (MDA-MB-435) was 7.2 µM and the TGI (MDA-MB-435) was 23.1 µM.
For COc1cc(C(=O)CBr)c(OC)cc1C, the TGI (BT-549 breast) was over 100 µM, the TGI (HS 578T breast) was over 100 µM and the TGI (MDA-MB-435) was over 100 µM. For the same compound, the TGI (MDA-N) was over 100 µM.
